Test results as given in article PMC8453635, “Piperidine Azasugars Bearing Lipophilic Chains: Stereoselective Synthesis and Biological Activity as Inhibitors of Glucocerebrosidase (GCase)” (The Journal of Organic Chemistry, 2021).

Assays:
Type in all cases: biochemical
[1] = test system: β-N-acetylglucosaminidase EC 3.2.1.52; test: Commercial glycosidase screening
Description: (§1) Preliminary biological evaluation of compounds 14 and 15 (at 100 μM inhibitor concentration) was performed toward a panel of 12 commercial glycosidases (α-L-fucosidase EC 3.2.1.51 from Homo sapiens, α-galactosidase EC 3.2.1.22 from coffee beans, β-galactosidases EC 3.2.1.23 from Escherichia coli and Aspergillus oryzae, α-glucosidases EC 3.2.1.20 from yeast and rice, amyloglucosidase EC 3.2.1.3 from Aspergillus niger, β-glucosidase EC 3.2.1.21 from almonds, α-mannosidase EC 3.2.1.24 from Jack beans, β-mannosidase EC 3.2.1.25 from snail, and β-N-acetylglucosaminidases EC 3.2.1.52 from Jack beans and bovine kidney).
(§2) The percentage (%) of inhibition for compounds 14 and 15 toward the corresponding glycosidase was determined by quadruplicate in the presence of 100 μM of the inhibitor on the well. Each enzymatic assay (final volume 0.12 mL) contains 0.01–0.5 units/mL of the enzyme (with previous calibration) and 4.2 mM aqueous solution of the appropriate p-nitrophenyl glycopyranoside (substrate) buffered to the optimal pH of the enzyme. Enzyme and inhibitor were pre-incubated for 5 min at rt, and the reaction started by addition of the substrate. After 20 min of incubation at 37 °C, the reaction was stopped by addition of 0.1 mL of sodium borate solution (pH 9.8). The p-nitrophenolate formed was measured by visible absorption spectroscopy at 405 nm (Asys Expert 96 spectrophotometer). Under these conditions, the p-nitrophenolate released led to optical densities linear with both reaction time and concentration of the enzyme.
(§3) Biological screening towards commercial glycosidases
(§4) α-L-fucosidase EC 3.2.1.51
(§5) α-galactosidase EC 3.2.1.22
(§6) β-galactosidase EC 3.2.1.23
(§7) α-glucosidase EC 3.2.1.20
(§8) amyloglucosidase EC 3.2.1.3
(§9) β-glucosidase EC 3.2.1.21
(§10) α-mannosidase EC 3.2.1.24
(§11) β-mannosidase EC 3.2.1.25
(§12) β-N-acetylglucosaminidase EC 3.2.1.52
(§13) “-“: no inhibition (or less than 15%) detected.

[2] = test system: α-glucosidase EC 3.2.1.20; test: Commercial glycosidase screening
Description: as §1, §2, §3, §4, §5, §6, §7, §8, §9, §10, §11, §12, §13

[3] = target: T1, β-galactosidase EC 3.2.1.23 (Aspergillus oryzae, UniProt Q2UCU3); test: Commercial glycosidase screening; settings: read-out: % Inhibition at 0.1 mM
T1 construct: purchased
T1 sequence (Q2UCU3 19-1005): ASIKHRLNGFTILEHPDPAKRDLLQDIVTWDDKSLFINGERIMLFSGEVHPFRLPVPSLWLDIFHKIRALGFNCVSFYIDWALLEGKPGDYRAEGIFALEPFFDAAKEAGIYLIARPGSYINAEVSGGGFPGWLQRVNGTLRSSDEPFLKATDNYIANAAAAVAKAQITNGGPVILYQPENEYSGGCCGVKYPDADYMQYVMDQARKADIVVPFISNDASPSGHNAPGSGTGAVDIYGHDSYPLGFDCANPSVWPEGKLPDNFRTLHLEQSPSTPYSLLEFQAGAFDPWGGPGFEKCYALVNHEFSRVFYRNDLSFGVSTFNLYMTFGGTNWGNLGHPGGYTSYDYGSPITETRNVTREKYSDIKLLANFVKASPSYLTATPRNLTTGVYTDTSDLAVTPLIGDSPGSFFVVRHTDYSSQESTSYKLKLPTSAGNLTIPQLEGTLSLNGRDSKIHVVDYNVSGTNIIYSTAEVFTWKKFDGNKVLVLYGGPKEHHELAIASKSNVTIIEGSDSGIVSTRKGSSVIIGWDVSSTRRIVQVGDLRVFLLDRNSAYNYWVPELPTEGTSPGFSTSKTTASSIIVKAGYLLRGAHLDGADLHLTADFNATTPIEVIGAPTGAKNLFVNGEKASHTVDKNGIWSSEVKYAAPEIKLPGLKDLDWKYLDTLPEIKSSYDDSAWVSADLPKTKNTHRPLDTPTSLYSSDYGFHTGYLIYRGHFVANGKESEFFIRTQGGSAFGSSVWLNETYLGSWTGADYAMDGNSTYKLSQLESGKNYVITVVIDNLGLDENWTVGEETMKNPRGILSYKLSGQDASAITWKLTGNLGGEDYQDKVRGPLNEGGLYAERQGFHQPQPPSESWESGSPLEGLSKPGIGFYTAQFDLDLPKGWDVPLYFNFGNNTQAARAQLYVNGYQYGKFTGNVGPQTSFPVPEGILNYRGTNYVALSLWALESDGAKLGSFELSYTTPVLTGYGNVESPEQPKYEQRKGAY
Description: as §1, §2, §3, §4, §5, §6, §7, §8, §9, §10, §11, §12, §13

[4] = target: T2, β-galactosidase EC 3.2.1.23 (Escherichia coli, UniProt P00722); test: Commercial glycosidase screening; settings: read-out: % Inhibition at 0.1 mM
T2 construct: purchased
T2 sequence (P00722 2-1024): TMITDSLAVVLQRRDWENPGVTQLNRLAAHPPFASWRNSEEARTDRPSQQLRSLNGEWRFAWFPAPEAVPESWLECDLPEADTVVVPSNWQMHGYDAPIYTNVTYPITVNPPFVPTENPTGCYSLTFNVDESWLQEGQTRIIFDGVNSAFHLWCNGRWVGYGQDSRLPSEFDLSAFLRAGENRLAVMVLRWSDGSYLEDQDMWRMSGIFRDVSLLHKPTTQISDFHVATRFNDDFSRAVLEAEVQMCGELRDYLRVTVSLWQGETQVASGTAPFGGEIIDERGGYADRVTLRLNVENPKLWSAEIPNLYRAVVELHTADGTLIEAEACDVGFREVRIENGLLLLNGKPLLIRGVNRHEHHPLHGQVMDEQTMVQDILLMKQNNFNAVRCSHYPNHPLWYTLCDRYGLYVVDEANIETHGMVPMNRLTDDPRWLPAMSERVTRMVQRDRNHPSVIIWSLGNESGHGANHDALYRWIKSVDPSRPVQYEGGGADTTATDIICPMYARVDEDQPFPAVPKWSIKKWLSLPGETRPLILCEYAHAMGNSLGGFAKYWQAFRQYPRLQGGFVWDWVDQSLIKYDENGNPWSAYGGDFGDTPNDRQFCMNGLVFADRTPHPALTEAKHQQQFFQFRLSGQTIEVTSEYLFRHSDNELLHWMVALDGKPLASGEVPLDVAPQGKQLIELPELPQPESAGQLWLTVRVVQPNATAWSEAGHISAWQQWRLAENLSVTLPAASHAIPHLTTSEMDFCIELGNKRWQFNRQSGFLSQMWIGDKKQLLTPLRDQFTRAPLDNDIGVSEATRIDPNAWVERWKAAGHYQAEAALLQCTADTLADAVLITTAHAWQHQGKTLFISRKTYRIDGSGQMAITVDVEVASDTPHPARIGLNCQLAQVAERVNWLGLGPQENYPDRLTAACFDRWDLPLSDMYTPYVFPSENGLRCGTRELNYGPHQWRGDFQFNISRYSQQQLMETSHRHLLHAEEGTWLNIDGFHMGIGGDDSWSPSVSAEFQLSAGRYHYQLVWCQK
Description: as §1, §2, §3, §4, §5, §6, §7, §8, §9, §10, §11, §12, §13

α-galactosidase = target: T3, α-galactosidase (Homo sapiens, UniProt P06280); test: Human lysosomal glycosidase selectivity screening (leukocyte homogenate); settings: 1 mM, read-out: percentage of inhibition, α-Gal
T3 construct: from leukocytes isolated from healthy donors (controls); from tissue; host or cells: leukocytes from healthy donors, sonicated homogenate
T3 sequence (P06280 32-429): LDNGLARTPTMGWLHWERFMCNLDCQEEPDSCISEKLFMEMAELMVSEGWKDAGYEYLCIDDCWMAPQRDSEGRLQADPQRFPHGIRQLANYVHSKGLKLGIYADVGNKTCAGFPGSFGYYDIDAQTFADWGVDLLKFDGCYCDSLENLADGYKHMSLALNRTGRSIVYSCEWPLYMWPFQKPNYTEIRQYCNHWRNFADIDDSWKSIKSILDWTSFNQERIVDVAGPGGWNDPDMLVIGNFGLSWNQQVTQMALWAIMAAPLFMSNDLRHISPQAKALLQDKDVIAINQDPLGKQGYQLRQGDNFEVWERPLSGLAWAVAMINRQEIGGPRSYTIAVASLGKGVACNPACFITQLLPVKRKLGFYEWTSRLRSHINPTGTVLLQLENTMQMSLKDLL
Description: In order to avoid undesired inhibitory side effects of a potential new drug, it has to be selective for a given target. The selectivity of the newly synthesized compounds 14, 15, and 33·HCl toward GCase was then investigated, evaluating their inhibition at 1 mM concentration toward six other lysosomal glycosidases (namely, α-and β-mannosidases, α- and β-galactosidases, α-fucosidase, and α-glucosidase) in cell homogenates (leucocytes or lymphocytes) isolated from healthy donors. […] Indeed, only moderate inhibitory activity (ca. 50%) was found toward human β-galactosidase for both piperidines 14 and 15, while negligible inhibitory activity was detected in all other cases.
The effect of 1 mM concentration of 14, 15, and 33·HCl was assayed toward six lysosomal glycosidases other than GCase, namely, α-mannosidase, β-mannosidase, α-galactosidase, β-galactosidase, α-fucosidase from leukocytes isolated from healthy donors (controls) and α-glucosidase from lymphocytes isolated from healthy donors’ flesh blood (controls). […]
μL, Sigma –Aldrich) in acetate buffer (0.1 M, pH 4.5) containing sodium azide (0.02%) were incubated at 37 °C for 1 h. Th e reaction was stopped by addition of sodium carbonate (200 μL; 0.5M, pH 10.7) containing Triton X -100 (0.0025 %), and the fluorescence 4 -methylumbelliferone released by α-galactosidase activity was measured in SpectraMax M2 microplate reader ( λex=365 nm, λem=435 nm; Molecular Devices). […]
α-Fucosidase activity was measured in a flat -bottomed 96 -well plate. […]
α-Glucosidase activity was measured in a flat –bottomed 96 well plate. […] The reaction was stopped by the addition of a solution of sodium carbonate (200 µL; 0.5M, pH 10.7) containing Triton X -100 (0.0025 %), and the fluorescence of 4 -methylumbelliferone released by α-glucosidase activity was measured in […]
Figure S 48. […] The corresponding calculated percentage of inhibition is indicated above each bar.

SMILES	% Inhibition at 0.1 mM ([1]; Jack beans)	% Inhibition at 0.1 mM ([1]; bovine kidney)	% Inhibition at 0.1 mM ([2]; rice)	% Inhibition at 0.1 mM ([2]; yeast)	inhibition at 100 µM [3]	inhibition at 100 µM [4]	inhibition at 1000 µM (α-galactosidase)
CCCCCCCC[C@H]1[C@@H](O)[C@H](O)[C@H](O)CN1CCCCCCCC [compound 14, (2S,3R,4R,5R)-1,2-Dioctylpiperidine-3,4,5-triol]	- (“-“: no inhibition (or less than 15%) detected.)	- (“-“: no inhibition (or less than 15%) detected.)	- (“-“: no inhibition (or less than 15%) detected.)	- (“-“: no inhibition (or less than 15%) detected.)	< 15%	< 15%	9%
CCCCCCCC[C@@H]1[C@@H](O)[C@H](O)[C@H](O)CN1CCCCCCCC [compound 15, (2R,3R,4R,5R)-1,2-Dioctylpiperidine-3,4,5-triol]	- (“-“: no inhibition (or less than 15%) detected.)	- (“-“: no inhibition (or less than 15%) detected.)	- (“-“: no inhibition (or less than 15%) detected.)	- (“-“: no inhibition (or less than 15%) detected.)	< 15%	< 15%	8%
CCCCCCCC[C@@H]1[C@@H](O)[C@H](O)[C@H](O)CN1C(CCCCCCC)CCCCCCC.Cl [compound 33·HCl, (2R,3R,4R,5R)-2-Octyl-1-(pentadecan-8-yl)-piperidine-3,4,5-triol Hydrochloride]							1%
